# Values joined by “and” are separate entries in the source; they are usually repeats but may differ in a detail not shown here. Equal entries are not always repeated.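 Protocol summary: plate cells (96-well), add compound at 5 concentrations, incubate 48 h, interpolate endpoints linearly. Abbreviation: GI50, concentration required for 50% inhibition of growth. TGI marks complete inhibition of growth.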
# Assays:
# Assay in all cases: inhibition of tumour cell growth, NCI panel, 48 h
# DU-145 prostate = system: DU-145 prostate
# NCI/ADR-RES ovarian = system: NCI/ADR-RES ovarian
# OVCAR-3 ovarian = system: OVCAR-3 ovarian
# HOP-92 NSCLC = system: HOP-92 NSCLC
# SF-268 CNS = system: SF-268 CNS
# SF-539 CNS = system: SF-539 CNS
# M14 melanoma = system: M14 melanoma
# HS 578T breast = system: HS 578T breast
# SW-620 colon = system: SW-620 colon
# SF-295 CNS = system: SF-295 CNS
Compound,GI50 (DU-145 prostate),TGI (DU-145 prostate) [µM],GI50 (NCI/ADR-RES ovarian),TGI (NCI/ADR-RES ovarian) [µM],GI50 (OVCAR-3 ovarian),TGI (OVCAR-3 ovarian) [µM],GI50 (HOP-92 NSCLC),TGI (HOP-92 NSCLC) [µM],GI50 (SF-268 CNS),TGI (SF-268 CNS) [µM],GI50 (SF-539 CNS) [µM],TGI (SF-539 CNS),GI50 (M14 melanoma),TGI (M14 melanoma) [µM],GI50 (HS 578T breast) [µM],TGI (HS 578T breast) [µM],GI50 (SW-620 colon) [µM],TGI (SW-620 colon) [µM],GI50 (SF-295 CNS) [µM],TGI (SF-295 CNS) [µM]
COc1cccc(NC(=O)c2sc3nc4c(cc3c2N)C(=O)CCC4)c1,0.231 µM,> 100,0.102 µM,> 45.9,0.0612 µM,0.653,0.0482 µM,26.8,0.725 µM,> 100,0.108,0.587 µM,0.0943 µM,> 100,0.0816,> 100,0.0571,> 100,0.0818,> 100
Cc1nc(N2CCC3(CC2)CO[C@@H](C)[C@H]3N)c(CO)nc1Sc1ccnc(N)c1Cl,45.3 µM,> 100,47.3 µM,> 100,> 85.3 µM,> 100,0.184 µM,2.12,12.8 µM,> 100,7.43,> 100 µM,> 100 µM,> 100,11,99.1,> 100,> 100,26.6,> 100
COc1ccc(C2SCC(=O)N2NC(=O)c2ccc(NC(C)=O)cc2)cc1 (stereo unspecified),–,> 100,–,> 100,–,> 100,–,89.2,–,> 100,–,> 100 µM,–,> 100,–,> 100,–,> 100,–,> 100
O=C(CNc1ccccc1[N+](=O)[O-])Nn1c(-c2ccccc2)nc2ccccc2c1=O,–,> 100,–,64.3,–,> 100,–,28.3,–,> 100,–,44.5 µM,–,38.1,–,> 100,–,42.2,–,46.5
COc1ccccc1CNCCCN1C(=O)c2ccc3c4c(ccc(c24)C1=O)C(=O)N(CCCCNCCCN)C3=O,1.59 µM,2.99,5.98 µM,34.2,0.334 µM,1.14,2.01 µM,7.04,1.57 µM,7.27,1.68,3.19 µM,1.89 µM,3.5,2.27,8.2,0.636,2,3.65,17.4
NC(=O)c1cccc(Nc2nccc(Nc3cccc4[nH]ncc34)n2)c1,9.7 µM,> 25,> 25 µM,> 25,8.31 µM,24.6,3 µM,12.2,8.45 µM,> 25,6.24,> 21.7 µM,9.59 µM,> 25,0.557,3.21,9.09,> 25,15.4,> 25
Cc1cccc(C)c1NC(=O)Nc1ccc(S(N)(=O)=O)cc1,–,> 100,–,> 100,–,> 100,–,> 100,–,> 100,–,> 100 µM,–,> 100,–,> 100,–,> 100,–,> 100
COc1ccc(-c2c3c(n(C4OC(COC(C)=O)C(OC(C)=O)C(OC(C)=O)C4OC(C)=O)c(=S)c2C#N)CC(C)(C)CC3=O)cc1 (stereo unspecified),46.8 µM and > 100 µM,> 100,41.6 µM and > 100 µM,> 100,40.5 µM and 88.7 µM,> 100,32.7 µM and > 100 µM,> 100,38.9 µM and > 100 µM,> 100,–,58.6 µM and > 100 µM,49.7 µM and > 100 µM,> 100,–,> 100,–,> 100,–,> 100
COc1nc(N)nc2c1ncn2C1OC(CO)C(O)C1O (stereo unspecified),> 5000 µM,> 5000,> 5000 µM,> 5000,> 5000 µM,> 5000,2640 µM,> 5000,> 5000 µM,> 5000,3800,> 5000 µM,> 5000 µM,> 5000,> 5000,> 5000,> 5000,> 5000,> 5000,> 5000
CNC(=O)Cc1nc(-c2cccc(NS(=O)(=O)c3c(F)cccc3F)c2F)c(-c2ccnc(Nc3ccccc3)n2)s1,12.6 µM,> 50,> 50 µM,> 50,12.9 µM,> 50,0.355 µM,> 14.4,6.98 µM,> 50,10.9,> 50 µM,0.0108 µM,6.58,0.482,43.7,9.54,> 50,20.5,> 50
CC(C)(C)CC(C)(C)NCc1cc(C(C)(C)C)cc(CNC(C)(C)CC(C)(C)C)c1O,6.07 µM,18.5,2.81 µM,11.7,2.59 µM,7,0.548 µM,4.2,5.4 µM,18.7,5.16,17.8 µM,1.95 µM,4.16,3.22,20.7,2.79,12.4,3.23,11.7
CN1C(=O)N[C@H]2[C@@H]3NC(=O)c4ccc(Br)n4[C@@H]3C[C@]21O,0.121 µM,2.8,0.386 µM,2.22,0.121 µM,1.85,0.0955 µM,1.28,0.115 µM,2.63,0.0825,0.447 µM,0.0454 µM,0.236,0.102,1.42,0.116,12.5,0.273,3.21
Cc1cc(C)c(NC(=S)NC(=O)c2ccccc2)cc1C,–,> 100,–,> 100,–,> 100,–,> 100,–,> 100,–,> 100 µM,–,> 100,–,> 100,–,> 100,–,> 100
CN(Cc1cc(Cl)cc(Cl)c1)CC(C(=O)c1ccccc1)c1ccccc1 (stereo unspecified),–,20.9,–,5.45,–,3.65,–,> 91.3,–,68.6,–,23.2 µM,–,13.5,–,> 57.7,–,2.92,–,> 100
Nc1ccn(C2OC(COC(=O)C34CC5CC(CC(C5)C3)C4)C(O)C2O)c(=O)n1 (stereo unspecified),–,> 100,–,> 100,–,> 100,–,> 100,–,> 100,–,> 100 µM,–,> 100,–,> 100,–,> 100,–,> 100

# Reference: PubChem BioAssay (NCI)
